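Dose response: 5 concentrations. Exposure: 48 h. Format: 96-well plates. Endpoint: linear interpolation; highest concentration if not reached. Definition used: TGI = concentration required for complete inhibition of growth.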
What was measured:
Experiment in all cases: NCI anticancer screen, dose series, 48 h
786-0 renal = test system: 786-0 renal
A498 renal = test system: A498 renal
A549 NSCLC = test system: A549 NSCLC
ACHN renal = test system: ACHN renal
CCRF-CEM leukemia = test system: CCRF-CEM leukemia
COLO 205 colon = test system: COLO 205 colon
DLD-1 colon = test system: DLD-1 colon
DMS 114 small cell lung = test system: DMS 114 small cell lung
DMS 273 small cell lung = test system: DMS 273 small cell lung
EKVX NSCLC = test system: EKVX NSCLC
HCC-2998 colon = test system: HCC-2998 colon
HCT-116 colon = test system: HCT-116 colon
HCT-15 colon = test system: HCT-15 colon
HL-60(TB) leukemia = test system: HL-60(TB) leukemia
HOP-62 NSCLC = test system: HOP-62 NSCLC
HOP-92 NSCLC = test system: HOP-92 NSCLC
HT29 colon = test system: HT29 colon
IGROV1 ovarian = test system: IGROV1 ovarian
K-562 leukemia = test system: K-562 leukemia
KM12 colon = test system: KM12 colon
KM20L2 colon = test system: KM20L2 colon
LOX IMVI melanoma = test system: LOX IMVI melanoma
LXFL 529 NSCLC = test system: LXFL 529 NSCLC
M14 melanoma = test system: M14 melanoma
M19-MEL melanoma = test system: M19-MEL melanoma
MALME-3M melanoma = test system: MALME-3M melanoma
MOLT-4 leukemia = test system: MOLT-4 leukemia
NCI-H23 lung = test system: NCI-H23 lung
NCI-H460 lung = test system: NCI-H460 lung
NCI-H522 lung = test system: NCI-H522 lung
OVCAR-3 ovarian = test system: OVCAR-3 ovarian
OVCAR-4 ovarian = test system: OVCAR-4 ovarian
OVCAR-5 ovarian = test system: OVCAR-5 ovarian
OVCAR-8 ovarian = test system: OVCAR-8 ovarian
RPMI-8226 leukemia = test system: RPMI-8226 leukemia
RXF-631 renal = test system: RXF-631 renal
SF-268 CNS = test system: SF-268 CNS
SF-295 CNS = test system: SF-295 CNS
SF-539 CNS = test system: SF-539 CNS
SK-MEL-2 melanoma = test system: SK-MEL-2 melanoma
SK-MEL-28 melanoma = test system: SK-MEL-28 melanoma
SK-MEL-5 melanoma = test system: SK-MEL-5 melanoma
SK-OV-3 ovarian = test system: SK-OV-3 ovarian
SN12C renal = test system: SN12C renal
SNB-19 CNS = test system: SNB-19 CNS
SNB-75 CNS = test system: SNB-75 CNS
SNB-78 CNS = test system: SNB-78 CNS
SW-620 colon = test system: SW-620 colon
TK-10 renal = test system: TK-10 renal
U251 CNS = test system: U251 CNS
UACC-257 melanoma = test system: UACC-257 melanoma
UACC-62 melanoma = test system: UACC-62 melanoma
UO-31 renal = test system: UO-31 renal
XF 498 CNS = test system: XF 498 CNS
CAKI-1 renal = test system: CAKI-1 renal
HOP-18 NSCLC = test system: HOP-18 NSCLC
NCI-H226 lung = test system: NCI-H226 lung
RXF 393 renal = test system: RXF 393 renal

Measured: TGI

Cc1cc2c(=O)c3ccc(Cl)cc3[nH]c2c(C(N)=O)c1C
not listed: CAKI-1 renal | HOP-18 NSCLC | NCI-H226 lung | RXF 393 renal
> 100 µM: all other assays above

CCCC(O)c1cn(-c2cccc(S(=O)(=O)O)c2)nn1 (configuration not stated)
> 100 µM: all assays above

Source: PubChem BioAssay (NCI)
